Reference: patent US20260286396A1, “AXL KNOCK OUT CAR T CELLS AND METHODS FOR USE THEREOF” (priority 2023, published 2026)

System: CART19 cells
Test: RNA sequencing of CART19 cells with Ingenuity pathway analysis (pathways, upstream regulators)
Format: cell-based, human
Conditions: CART19+JeKo-1, 30 nM TP-0903 vs vehicle, 24 h
Experimental: CART19 cells were isolated using CD4 and CD8 microbeads to […] the JeKo-1 target cells; this isolation step was performed twice to eliminate the possible contamination of JeKo-1 cells. RNA was isolated from the CART19 cells using QIAGEN RNEASY® Plus Mini Kit. RNA was further treated with DNase I (QIAGEN) and purified using RNA Clean & Concentrator (Zymo Research). […] The fastq files were viewed in FastQC to check for quality (Cox et al., Mol Ther., 29 (4): 1529-1540, 2020). After verifying the lack of adapter sequences with FastQC, Cutadapt (Martin, EMBnet, 17:10-12, 2011) was used to filter for reads greater than 32 base pairs. Output files were re-checked for quality using FastQC. The latest human reference genome (GRCh38.p13) was downloaded from NCBI. Genome index files were generated using STAR (Cox et al. 2020, supra, and Dobin et al., Bioinformatics, 29:15-21, 2012). Paired end reads from fastq files were mapped to the genome for each condition. HTSeq was used to generate expression counts for each gene (Cox et al. 2020, supra; and Putri et al., Bioinformatics, 38:2943-2945, 2022). […] The disruption efficiency of the CRISPR/Cas9 GM-CSF knockout was determined using targeted sequencing through PCR and TIDE analysis (software available at tide.nki.nl) as described elsewhere (Sakemura et al. 2021, supra).
RNA sequencing of CART19 cells was then performed. […] Data were analyzed with the use of QIAGEN Ingenuity Pathway Analysis (IPA) (digitalinsights.qiagen.com/IPA; Krämer et al., Bioinformatics 30 (4): 523-530, 2014).

CN1CCN(Cc2ccc(Nc3ncc(Cl)c(Nc4ccccc4S(=O)(=O)N(C)C)n3)cc2)CC1 [TP-0903, Dubermatinib]
ABCG1 Expr Log Ratio: −0.301
ADORA2A Expr Log Ratio: 0.629
ADRA1B Expr Log Ratio: −0.268
AGPAT2 Expr Log Ratio: 0.051
ALDH2 Expr Log Ratio: −0.892
APP Expr Log Ratio: 0.132
ARHGAP5 Expr Log Ratio: 0.025
ARNT Expr Log Ratio: −0.009
ATF3 Expr Log Ratio: −0.209
ATF4 Expr Log Ratio: −0.52
BCAP31 Expr Log Ratio: 0.118
BCL3 Expr Log Ratio: 0.097
BCL6 Expr Log Ratio: 0.021
BMP7 Expr Log Ratio: −0.942
BMP10 Expr Log Ratio: −1.585
BTK Expr Log Ratio: −0.323
C3 Expr Log Ratio: 0.511
CALCA Expr Log Ratio: −1.865
CCND1 Expr Log Ratio: −0.129
CCR3 Expr Log Ratio: −0.728
CD2 Expr Log Ratio: 0.318
CD5 Expr Log Ratio: 0.33
CD28 Expr Log Ratio: 0.407
CD38 Expr Log Ratio: −0.087
CD40LG Expr Log Ratio: 0.131
CD44 Expr Log Ratio: 0.428
CD48 Expr Log Ratio: 0.067
CD274 Expr Log Ratio: −0.506
COMMD1 Expr Log Ratio: 0.174
DUSP10 Expr Log Ratio: 0.211
EBF1 Expr Log Ratio: −0.235
EDN1 Expr Log Ratio: −0.099
EIF2AK4 Expr Log Ratio: −0.2
EPX Expr Log Ratio: −0.176
ERBB2 Expr Log Ratio: −0.057
FHL2 Expr Log Ratio: 0.639
FMR1 Expr Log Ratio: 0.099
FYN Expr Log Ratio: 0.259
GAS5-AS1 Expr Log Ratio: −0.022
GNA14 Expr Log Ratio: −2.841
HAVCR1 Expr Log Ratio: −0.121
IGF1 Expr Log Ratio: −0.149
IGF1R Expr Log Ratio: −0.155
IKBKB Expr Log Ratio: −0.036
IKZF2 Expr Log Ratio: −0.318
IL4R Expr Log Ratio: 0.093
IL10 Expr Log Ratio: −0.008
IL15 Expr Log Ratio: 0.191
IL18 Expr Log Ratio: 0.03
IL21 Expr Log Ratio: −0.452
INSIG1 Expr Log Ratio: −0.836
IRF4 Expr Log Ratio: −0.587
ITGB2 Expr Log Ratio: 0.114
KDM1A Expr Log Ratio: 0.09
KRAS Expr Log Ratio: 0.11
LEF1 Expr Log Ratio: 0.105
LGALS3 Expr Log Ratio: −0.014
LTA Expr Log Ratio: 0.37
LTBR Expr Log Ratio: 0.08
MAPK3 Expr Log Ratio: −0.166
MAPK7 Expr Log Ratio: −0.017
MBP Expr Log Ratio: 0.105
MED1 Expr Log Ratio: −0.112
MIR-29 Expr Log Ratio: −3.808
MYB Expr Log Ratio: −0.03
MYDGF Expr Log Ratio: −0.06
NFATC1 Expr Log Ratio: 0.232
NFE2L2 Expr Log Ratio: 0.172
NFIL3 Expr Log Ratio: −0.13
NFKBIA Expr Log Ratio: 0.173
NPAT Expr Log Ratio: −0.021
NR4A2 Expr Log Ratio: 0.982
NREP Expr Log Ratio: −0.21
PAF1 Expr Log Ratio: 0.135
PDCD1 Expr Log Ratio: 0.967
POU2F1 Expr Log Ratio: −0.356
PRDM1 Expr Log Ratio: −0.006
PRKCZ Expr Log Ratio: 0.36
PTEN Expr Log Ratio: 1.201
PTPRJ Expr Log Ratio: 0.044
RAD21L1 Expr Log Ratio: 0.844
RAMP1 Expr Log Ratio: −0.296
RRP1B Expr Log Ratio: −0.087
RXRA Expr Log Ratio: −0.75
SATB2 Expr Log Ratio: −0.715
SIRT6 Expr Log Ratio: −0.028
SMAD2 Expr Log Ratio: −0.395
SMAD7 Expr Log Ratio: 0.057
SMC1B Expr Log Ratio: −0.146
SNCA Expr Log Ratio: 1.134
SORL1 Expr Log Ratio: 0.047
SPI1 Expr Log Ratio: −0.215
SREBF1 Expr Log Ratio: −0.191
SREBF2 Expr Log Ratio: −0.048
STAG3 Expr Log Ratio: −0.19
STARD7 Expr Log Ratio: −0.076
SUCNR1 Expr Log Ratio: −1.022
TEAD3 Expr Log Ratio: −0.396
TERT Expr Log Ratio: −0.599
TGFB1 Expr Log Ratio: −0.094
TGFB3 Expr Log Ratio: 0.178
TGFBR2 Expr Log Ratio: 0.18
TLR2 Expr Log Ratio: 0.013
TLR7 Expr Log Ratio: −1.275
TNFRSF4 Expr Log Ratio: 0.263
TNFSF15 Expr Log Ratio: 1.42
TPH1 Expr Log Ratio: 0.019
TRAF3 Expr Log Ratio: 0.022
WNT5B Expr Log Ratio: −0.491
YAP1 Expr Log Ratio: −0.546
upstream regulator ABCG1 Activation Z-Score: 1.387
upstream regulator ADORA2A Activation Z-Score: −0.245
upstream regulator AGPAT2 Activation Z-Score: 1
upstream regulator ALDH2 Activation Z-Score: 1.432
upstream regulator APP Activation Z-Score: −2.018
upstream regulator APP Predicted Activation State: inhibited
upstream regulator ARNT Activation Z-Score: −1.795
upstream regulator ATF3 Activation Z-Score: −1.227
upstream regulator ATF4 Activation Z-Score: −2.62
upstream regulator ATF4 Predicted Activation State: inhibited
upstream regulator BCAP31 Activation Z-Score: −0.968
upstream regulator BCL3 Activation Z-Score: −1.353
upstream regulator BCL6 Activation Z-Score: 0.949
upstream regulator BCR (COMPLEX) Activation Z-Score: −1.126
upstream regulator BMP7 Activation Z-Score: −1.089
upstream regulator BMP10 Activation Z-Score: −0.707
upstream regulator BTK Activation Z-Score: −1.091
upstream regulator C3 Activation Z-Score: −0.378
upstream regulator CALCA Activation Z-Score: 0.887
upstream regulator CCK Activation Z-Score: 0.437
upstream regulator CCL2 Activation Z-Score: −1.368
upstream regulator CCND1 Activation Z-Score: 0.042
upstream regulator CD5 Activation Z-Score: −1.732
upstream regulator CD28 Activation Z-Score: −1.369
upstream regulator CD38 Activation Z-Score: −1.353
upstream regulator CD40LG Activation Z-Score: −2.045
upstream regulator CD40LG Predicted Activation State: inhibited
upstream regulator CD44 Activation Z-Score: −1.835
upstream regulator CD274 Activation Z-Score: 0.478
upstream regulator CG Activation Z-Score: −0.872
upstream regulator COMMD1 Predicted Activation State: activated
upstream regulator DUSP10 Activation Z-Score: 0.392
upstream regulator EBF1 Activation Z-Score: −2.182
upstream regulator EBF1 Predicted Activation State: inhibited
upstream regulator EDN1 Activation Z-Score: −1.02
upstream regulator EIF2AK4 Activation Z-Score: −2.395
upstream regulator EIF2AK4 Predicted Activation State: inhibited
upstream regulator ERBB2 Activation Z-Score: −2.46
upstream regulator ERBB2 Predicted Activation State: inhibited
upstream regulator ERK1/2 Activation Z-Score: −0.915
upstream regulator ERK Activation Z-Score: −2.029
upstream regulator ERK Predicted Activation State: inhibited
upstream regulator FHL2 Activation Z-Score: −0.64
upstream regulator FMR1 Activation Z-Score: 1.976
upstream regulator FYN Activation Z-Score: −1.446
upstream regulator HAVCR1 Activation Z-Score: 0.104
upstream regulator HNF1A-AS1 Activation Z-Score: −2
upstream regulator HNF1A-AS1 Predicted Activation State: inhibited
upstream regulator ID3 Activation Z-Score: 1.671
upstream regulator IFN ALPHA/BETA Activation Z-Score: −1.195
upstream regulator IGF1 Activation Z-Score: −1.148
upstream regulator IGF1R Activation Z-Score: −0.652
upstream regulator IKBKB Activation Z-Score: −2.146
upstream regulator IKBKB Predicted Activation State: inhibited
upstream regulator IL1 Activation Z-Score: −1.785
upstream regulator IL4R Activation Z-Score: −0.187
upstream regulator IL10 Activation Z-Score: 1.633
upstream regulator IL12 (FAMILY) Activation Z-Score: 1.39
upstream regulator IL15 Activation Z-Score: −1.117
upstream regulator IL18 Activation Z-Score: −0.28
upstream regulator IL21 Activation Z-Score: 0.183
upstream regulator IL27RA Activation Z-Score: 2.207
upstream regulator IL27RA Predicted Activation State: activated
upstream regulator INSIG1 Activation Z-Score: 1.495
upstream regulator INSULIN Activation Z-Score: −1.452
upstream regulator IRF4 Activation Z-Score: 0.415
upstream regulator ITGB2 Activation Z-Score: −0.128
upstream regulator KCNIP3 Activation Z-Score: 0.378
upstream regulator KDM1A Activation Z-Score: 0.351
upstream regulator KRAS Activation Z-Score: −0.772
upstream regulator LEF1 Activation Z-Score: 0.367
upstream regulator LGALS3 Activation Z-Score: −0.747
upstream regulator LTA Activation Z-Score: −1.763
upstream regulator LTB Activation Z-Score: −1.246
upstream regulator LTBR Activation Z-Score: −1.664
upstream regulator MAPK3 Activation Z-Score: −0.896
upstream regulator MAPK7 Activation Z-Score: −0.64
upstream regulator MBP Activation Z-Score: 0.577
upstream regulator MED1 Activation Z-Score: −1.671
upstream regulator MIR-29 Activation Z-Score: 1.128
upstream regulator MIR-450A-5P (AND OTHER MIRNAS W/SEED UUUGCGA) Predicted Activation State: activated
upstream regulator MIRLET7 Activation Z-Score: 0
upstream regulator MLXIPL Predicted Activation State: inhibited
upstream regulator MTORC1 Activation Z-Score: −2.087
upstream regulator MTORC1 Predicted Activation State: inhibited
upstream regulator MYB Activation Z-Score: −1.742
upstream regulator NFAT (FAMILY) Activation Z-Score: −2.176
upstream regulator NFAT (FAMILY) Predicted Activation State: inhibited
upstream regulator NFATC1 Activation Z-Score: −1.4
upstream regulator NFE2L2 Activation Z-Score: −1.966
upstream regulator NFIL3 Activation Z-Score: −2.2
upstream regulator NFIL3 Predicted Activation State: inhibited
upstream regulator NFKBIA Activation Z-Score: −0.758
upstream regulator NR4A2 Activation Z-Score: 0.898
upstream regulator NREP Activation Z-Score: 0.218
upstream regulator NRG1 Activation Z-Score: −1.949
upstream regulator P38 MAPK Activation Z-Score: −2.405
upstream regulator P38 MAPK Predicted Activation State: inhibited
upstream regulator PDCD1 Activation Z-Score: 0.055
upstream regulator PDX1 Activation Z-Score: 0.24
upstream regulator POSTN Activation Z-Score: −1
upstream regulator PRDM1 Activation Z-Score: 0.122
upstream regulator PRKCZ Activation Z-Score: −0.167
upstream regulator PTEN Activation Z-Score: 0.449
upstream regulator PTPRJ Activation Z-Score: 0
upstream regulator RAS Activation Z-Score: −2.375
upstream regulator RAS Predicted Activation State: inhibited
upstream regulator RXRA Activation Z-Score: 1.069
upstream regulator SATB2 Activation Z-Score: −0.152
upstream regulator SIRT6 Activation Z-Score: 0.064
upstream regulator SMAD2 Activation Z-Score: −1.681
upstream regulator SMAD7 Activation Z-Score: −0.135
upstream regulator SNCA Activation Z-Score: −0.246
upstream regulator SORL1 Activation Z-Score: −2.714
upstream regulator SORL1 Predicted Activation State: inhibited
upstream regulator SPI1 Activation Z-Score: −1.174
upstream regulator SREBF1 Activation Z-Score: −3.191
